Assays:
[1] = test system: PCSK9[1:33]-GFP translation; assay: Wheat germ lysate (WG) IVTT microplate activity assay, PCSK9[1:33]-GFP template; type: biochemical; settings: WG IVTT; for IC50: PCSK9[1:33]-GFP template, triplicate, ± standard deviation of the mean
Source text: (§1) A commercially available wheat germ lysate (WG) IVTT system was employed to assay translation inhibition. Translation activity was detected via a GFP reporter, and the assay was miniaturized to picoliter-scale microfluidic droplets (Figure 1A,B). […] PCSK9 and RPL27 were truncated to the first 33 and 32 amino acids, respectively (PCSK9[1:33] and RPL27[1:32]). The sequences contain distinct PF846 stall sites and were both fused to a GFP reporter. The GFP reporter and a frameshift mutant of PCSK9[1:33] (PCSK9-FS[1:33]), which mutates the nascent chain sequence while maintaining a nearly identical mRNA sequence, were included as negative controls.[13] […] Sequence sensitivity was further confirmed by an N-terminal deletion series of PCSK9[1:33]-GFP; deletion of N-terminal residues increasingly ablated PCSK9[1:33]-GFP translation sensitivity to PF846 (Figure 1D). The WG IVTT assay was miniaturized using a previously described microfluidic circuit modified for longer incubation times (Figure S1)[27] using PF846 as a positive control compound, and assay statistical quality was calculated (Z′=0.7) (Figure 1E). To confirm detection of translation inhibition from library beads, hygromycin B, a nonselective aminoglycoside translation inhibitor, was coupled to beads displaying a photocleavable linker (PC-HygB). UV irradiation releases hygromycin from the bead, allowing it to interact with the WG IVTT assay in the droplet. PC-HygB bead photocleavage supernatant inhibited PCSK9[1:33]-GFP translation both in a microplate assay and in microfluidic droplets (Figure 1F,G, S2). Assay statistical quality using PC-HygB positive control beads was similarly calculated (Z′ = 0.75, Figure 1H). […]
(§2) 436 Microplate IVTT Assays
(§3) 437 Wheat germ lysate IVTT plate assays were prepared as 5 µL reactions. Wheat germ lysate
(§4) 438 (3 µL) was added to test compound or vehicle control (1 µL) in a 384-well black microplate
(§5) 439 and the reaction was incubated (10 min, RT). Template (1 µL) was added and reaction
(§6) 440 progress was immediately monitored (λex = 480 nm, λem = 530 nm, 27 °C, 2 h). Rela-
(§7) 441 tive activity was calculated using the slope of fluorescence increase over time (at 15–30
(§8) 442 min post reaction initiation) for compound samples relative to that of the DMSO vehicle
443 control. […]

[2] = test system: PCSK9-FS[1:33]-GFP translation; assay: WG IVTT microplate activity assay, PCSK9-FS[1:33]-GFP frameshift counter template; type: biochemical, wheat germ; settings: for IC50: PCSK9-FS[1:33]-GFP template, triplicate, undetectable IC50 marked >300; for activity on PCSK9-FS[1:33]-GFP translation (in words): frameshift control
Source text: as §1, §2, §3, §4, §5, §6, §7, §8
443 control. All microplate experiments contained 25 ng/µL plasmid, except for assays with
445 respectively. HeLa lysate IVTT plate assays were prepared as 5.5 µL reactions. […]

[3] = test system: PCSK9[1:33]-GFP translation; assay: Microfluidic activity-based DEL screen in WG IVTT droplets, PCSK9[1:33]-GFP, hit k class by sequencing; type: biochemical, wheat germ; settings: number of times hit structure observed on distinct beads, summed across PCSK9[1:33]-GFP screens; *** p < 0.001, NS not significant
Protocol: (§9) The validated PF846-inspired library was screened to discover novel translation inhibitors. DEL beads were encapsulated in microfluidic droplets of WG IVTT and irradiated with UV in flow to liberate DEL members into the droplets. The photodosed droplets were incubated and sorted based on fluorescence.[25] PCSK9[1:33]-GFP was chosen as a proof-of-concept target, and PCSK9-FS[1:33]-GFP was used as a counter screen target to identify nonselective compounds. PC-HygB were mixed with DEL beads and screened in the microfluidic device for inhibitors of translation. […] Droplet generation, bead introduction, and library and control bead hit rate were uniform during the screen (Figure 3, bottom).
(§10) Hit collection DNA tags from the PCSK9[1:33]-GFP and PCSK9-FS[1:33]-GFP screens were sequenced to deduce the structures of molecules that inhibited PCSK9[1:33]- or PCSK9-FS[1:33]-GFP translation. Hit structure k class, the number of times a given hit structure is observed on distinct beads,[31] was summed across screens and visualized as a heat map (Figure 4A). […] The combined hit sets for the two templates contained 121 unique hits with k ≥ 17 across the two screening campaigns. The most frequently observed cycle 1 starter BBs were 1 and 2, which share an 8-methylisoquinoline moiety, but differ in the vector for cycle 2 carboxylic acid connection, and 3, which contains an N-methylazaindole moiety. The most frequently identified cycle 2 tails included carboxylic acids 4–7. […] Substituted pyrazole 6 and pyridyl-benzimidazole 7 also appeared frequently with the aforementioned starters. There were 5 hits that appeared with high k class in both PCSK9[1:33]-GFP and PCSK9[1:33]-FS-GFP screening campaigns.
(§11) 319 the droplet experiment to homogenize the bead suspension. Syringes were connected to
(§12) 320 fluidic inputs with microbore Tygon tubing (0.01” x 0.03” IC × OD). Droplet generation oil
(§13) 321 (OIL1) was 1% picosurf in HFE. Spacing (OIL2) and pinning (OIL3) oils were neat HFE.
(§14) 322 Assay reagents were driven by displacement syringe pumps (Legato 100, KD Scientific,
(§15) 323 Holliston, MA) through the circuit. OIL2 and OIL3 were initially flowed (22 µL/min and
(§16) 324 12 µL/min, respectively) and hit and waste shunt tubing were clamped to backfill the
(§17) 325 circuit. Once the incubator was filled with oil, the hit and waste tubing were unclamped
(§18) 326 and back shunts were clamped. AQ1, AQ2, and OIL1 flows were initiated (960 nL/min,
(§19) 327 640 nL/min, and 1200 nL/min, respectively) and held constant during the screen. Once
(§20) 328 droplet generation equilibrated (∼10 min), the main shunt was clamped and droplets
(§21) 329 started to fill the incubator. When droplets filled the incubator and entered the sorting
(§22) 330 region, data acquisition and screening was initiated.
(§23) 331 The custom confocal LIF detection setup and LabView code were previously described.S3
(§24) 332 Briefly, photon counting PMTs (H7828, Hamamatsu, Middlesex, NJ) were used to detect
(§25) 333 droplet fluorescence emission using a custom two-channel (520 and 570 nm) confocal mi-
(§26) 334 croscope with laser excitation (488 nm, 20 mW, OBIS-488 20LS, Coherent Inc., Santa Clara,
(§27) 335 CA). A data acquisition board (DAQ, NI, USB-6341, National Instruments) was used to
(§28) 336 digitize PMT signal, which was binned into counts, and in-house LabView code was used
(§29) 337 to control acquisition and execute droplet sorting decisions. Signal was smoothed in real-
(§30) 338 time using median-filter smoothing (width = 3). Droplets were identified by the 570 nm
(§31) 339 channel signal and the maximum signal in the 520 nm channel (max = countsn-1 when
(§32) 340 countsn <countsn-1) was set as the droplet peak value. A roaming sort threshold was
(§33) 342 the 520 nm channel. The threshold was calculated as µ - 5σ, where µ andσ were the mean
(§34) 343 and standard deviation of the previous 300 droplets’ fluorescence values, respectively. Hit
(§35) 344 droplets were not included in the calculation of droplet mean and standard deviation. A […]

[4] = test system: PCSK9-FS[1:33]-GFP translation; assay: Microfluidic activity-based DEL counter screen in WG IVTT droplets, PCSK9-FS[1:33]-GFP, hit k class by sequencing; type: biochemical, wheat germ; settings: number of times hit structure observed on distinct beads, summed across PCSK9-FS[1:33]-GFP screens; *** p < 0.001, NS not significant
Protocol: as §9, §10, §11, §12, §13, §14, §15, §16, §17, §18, §19, §20, §21, §22, §23, §24, §25, §26, §27, §28, §29, §30, §31, §32, §33, §34, §35

Row | SMILES | inhibition of PCSK9[1:33]-GFP translation (in words) [1] | IC50 [1] | IC50 [2] | activity on PCSK9-FS[1:33]-GFP translation (in words) [2] | k class PCSK9 [3] | k class PCSK9-FS [4]
1 | Cc1cccc2ccnc(N(C(=O)[C@H]3CCCN(C(=O)c4ccc(N5CCCC5)nc4)C3)[C@@H]3CCCNC3)c12 [Compound 13] | modestly inhibited | 11.2 ± 0.5 µM | > 300 µM | minimal activity | 39 | 4
2 | Cc1cccc2ccnc(N(C(=O)C3CCN(C(=O)c4ccc5nc(-c6ccncc6)[nH]c5c4)CC3)[C@@H]3CCCNC3)c12 [Compound 14] | similarly active on both templates | 11.4 ± 0.4 µM | 7.7 ± 0.1 µM | similarly active on both templates | 53 | 17
3 | Cc1cccc2ccnc(N(C(=O)[C@H]3CCCN(C(=O)c4ccc(-c5cnco5)cc4)C3)[C@@H]3CCCNC3)c12 [Compound 10, (S)-N-(8-methylisoquinolin-1-yl)-1-(4-(oxazol-5-yl)benzoyl)-N-((R)-piperidin-3-yl)piperidine-3-carboxamide] | modestly inhibited | 6 ± 0.2 µM | > 300 µM | minimal activity | 34 | 3
4 | Cc1cccc2ccnc(N(C(=O)C3CCN(C(=O)C#CC4(O)CCOCC4)CC3)[C@@H]3CCCNC3)c12 [Compound 12] | similarly active on both templates | 44 ± 4 µM | 27 ± 2 µM | similarly active on both templates | 31 | 3
5 | Cc1c(C(=O)N2CCC(C(=O)N(c3nccc4cccc(C)c34)[C@@H]3CCCNC3)CC2)[nH]c2c1C(=O)CCC2 [Compound 11] | similarly active on both templates | 19.1 ± 0.5 µM | 31 ± 1 µM | similarly active on both templates | 38 | 10

Reference: article PMC11503492, “Activity-Based DNA-Encoded Library Screening for Selective Inhibitors of Eukaryotic Translation” (ACS Central Science, 2024)
